The structures appear in SMILES notation.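 Tested at 5 concentrations; 48 h exposure; 96-well plates; endpoints linearly interpolated, else capped at highest concentration. At the GI50, growth is halved.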 Active and inactive are the calls of the source. No stated cut-off is given here; in the data, active = GI50 up to about 1.1 µM and inactive = higher.

Test systems include DMS-114; DMS-273; KM-20L2; LXFL 529; M19-MEL; RXF 631; XF498; HOP-18; SNB-78.
Test in all cases: inhibition of tumour cell growth, NCI panel, 48 h

Take `COc1ccc(S(=O)(=O)NNS(C)(=O)=O)cc1`: the GI50 with DMS-114, in the experiment with DMS-273, in the experiment on KM-20L2, in the experiment with LXFL 529, in the experiment on M19-MEL and in the experiment on RXF 631 was > 100 µM (inactive) in each case. The GI50 in the experiment with XF498 was 60.3 µM (inactive).

As for `Cc1cccc(C)c1NC(=O)C(=O)CC(=O)c1cccc([N+](=O)[O-])c1`, the GI50 in the experiment with DMS-273, in the experiment on HOP-18, with KM-20L2, in the experiment on LXFL 529, in the experiment with M19-MEL and in the experiment with SNB-78 was > 100 µM (inactive) each time. Moreover, the GI50 in the experiment with XF498 is > 100 µM (inactive).

`COc1ccc(NC(=O)COC(=O)c2cccc3c(=O)c4ccccc4[nH]c23)cc1`: the GI50 in the experiment with DMS-114 is 17.2 µM (inactive); with HOP-18, 27 µM (inactive); with KM-20L2, 21.5 µM (inactive); in the experiment with LXFL 529, 17.3 µM (inactive); with M19-MEL, 19.2 µM (inactive); with SNB-78, 22.1 µM (inactive). Further, the GI50 in the experiment with XF498 is 19.9 µM (inactive).

For `CN(C)CCC(CCN(C)C)=NOC(=O)c1ccccc1`, the GI50 with DMS-114, in the experiment on DMS-273, in the experiment on HOP-18, with KM-20L2, with LXFL 529 and in the experiment with M19-MEL was > 100 µM (inactive) in each case. Further, the GI50 in the experiment on RXF 631 and in the experiment with XF498 was > 100 µM (inactive) each time.

With `COc1ccc([C@@H]2OC(=O)C3C2C(=O)O[C@H]3c2ccc(OC)c(OC)c2)cc1OC` (stereo partly drawn), the GI50 in the experiment on DMS-114, in the experiment with DMS-273, in the experiment on HOP-18, in the experiment with KM-20L2, with M19-MEL and in the experiment with RXF 631 was > 100 µM (inactive) throughout. The GI50 in the experiment with SNB-78 and in the experiment on XF498 was > 100 µM (inactive) in each case.

As for `Cc1ccc(S(=O)(=O)c2ccc(NC(=O)SCCC(=O)O)cc2)cc1`, the GI50 with DMS-114, in the experiment on DMS-273, in the experiment on KM-20L2, in the experiment with LXFL 529 and with SNB-78 was > 100 µM (inactive) in each case.

Take `Cc1ccc(C)c(NC(=O)CCc2nnc(S)[nH]2)c1`: the GI50 was 28.7 µM (inactive) in the experiment on DMS-114; > 100 µM (inactive) with DMS-273; > 100 µM (inactive) in the experiment with HOP-18; > 100 µM (inactive) with KM-20L2; > 100 µM (inactive) with LXFL 529; > 100 µM (inactive) in the experiment on M19-MEL. The GI50 in the experiment with RXF 631, in the experiment on SNB-78 and in the experiment with XF498 was > 100 µM (inactive) throughout.

With `N#C/C(=C\c1cc2ccccc2c2ccccc12)c1ccccc1`, the GI50 was 3.05 µM (inactive) in the experiment on DMS-273; 18.7 µM (inactive) with HOP-18; 3.9 µM (inactive) with KM-20L2; 14.4 µM (inactive) in the experiment on LXFL 529; 7.29 µM (inactive) in the experiment on M19-MEL; 4.06 µM (inactive) in the experiment on SNB-78. Also, in the experiment with XF498, the GI50 was 3.22 µM (inactive).

For the compound `CN(C)C(c1ccccc1)C(O)c1ccccc1` (stereo not drawn), the GI50 in the experiment on DMS-114, with DMS-273, in the experiment with HOP-18, with KM-20L2, with LXFL 529 and in the experiment on M19-MEL was > 100 µM (inactive) in each case. In addition, the GI50 in the experiment with RXF 631, in the experiment on SNB-78 and in the experiment on XF498 was > 100 µM (inactive) in each case.

In the case of `COc1ccc(C2c3cc4c(cc3OC(O)(CO)C2C(=O)O)OCO4)c(OC)c1OC.COc1ccc(C2c3cc4c(cc3OC3(O)COC(=O)C23)OCO4)c(OC)c1OC` (stereo not drawn), the GI50 in the experiment on DMS-114 was > 100 µM (inactive); with DMS-273, > 100 µM (inactive); in the experiment on HOP-18, > 100 µM (inactive); in the experiment with KM-20L2, > 100 µM (inactive); in the experiment on M19-MEL, > 100 µM (inactive); with SNB-78, 59.2 µM (inactive). For the same compound, in the experiment on XF498, the GI50 was > 100 µM (inactive).

In the case of `CCOC(=O)C1=C(C(=O)OCC)C2c3ccccc3C=CN2C(C(=O)OCC)=C(SC)S1` (stereo not drawn), the GI50 in the experiment with DMS-114 was 52.5 µM (inactive); in the experiment with DMS-273, 63.1 µM (inactive); in the experiment on KM-20L2, > 100 µM (inactive); in the experiment with LXFL 529 it was 51.2 µM (inactive); with M19-MEL, > 100 µM (inactive); in the experiment with SNB-78 it was 79.1 µM (inactive).

`O=C(N/N=C(/c1nc2ccc(Cl)cc2[nH]c1=O)C(O)c1ccc(Cl)cc1Cl)c1ccncc1` (stereo not drawn): the GI50 in the experiment with DMS-114, in the experiment with DMS-273, with KM-20L2, in the experiment with LXFL 529, with M19-MEL and in the experiment with RXF 631 was > 100 µM (inactive) each time. For the same compound, the GI50 with SNB-78 is > 100 µM (inactive).

Regarding `COC1=C(Br)C(=O)c2nc(C)ccc2C1=O`, the GI50 in the experiment with DMS-114 is 15 µM (inactive); in the experiment with DMS-273 it was 17.2 µM (inactive); in the experiment on HOP-18, 17.1 µM (inactive); in the experiment on KM-20L2 it was 19 µM (inactive); with LXFL 529, 6.28 µM (inactive); with M19-MEL, 14.1 µM (inactive). Also, the GI50 in the experiment with SNB-78 is 18.7 µM (inactive).

In the case of `CC(Oc1ccc2c(=O)cc(-c3ccccc3)oc2c1)C(=O)O` (stereo not drawn), the GI50 in the experiment with DMS-114, in the experiment on HOP-18, in the experiment on KM-20L2, in the experiment with LXFL 529, in the experiment with M19-MEL and with SNB-78 was > 100 µM (inactive) in each case. In addition, in the experiment with XF498, the GI50 was > 100 µM (inactive).

On to `CSc1nc(-c2ccccc2)nc(N2CCOCC2)[s+]1`, for which the GI50 in the experiment on DMS-273 was > 100 µM (inactive); in the experiment with HOP-18, > 100 µM (inactive); with KM-20L2 it was > 100 µM (inactive); in the experiment on LXFL 529, 37.3 µM (inactive); with M19-MEL, > 100 µM (inactive); in the experiment with SNB-78, > 100 µM (inactive).

With `CC(=O)Nc1ccc(-c2nnc(SCC(=O)Nc3ccc(C)cc3)o2)cc1`, the GI50 was 14.8 µM (inactive) in the experiment on DMS-114; 15.9 µM (inactive) in the experiment on DMS-273; 17.4 µM (inactive) with HOP-18; 19.5 µM (inactive) with KM-20L2; 16.3 µM (inactive) in the experiment with LXFL 529; 17.6 µM (inactive) in the experiment with M19-MEL. The GI50 with SNB-78 was 16.6 µM (inactive).

As for `COc1ccc(CC(=O)c2cc(OC)c(OC)cc2C)cc1OC`, the GI50 with DMS-114 is 14.7 µM (inactive); in the experiment with KM-20L2 it was > 100 µM (inactive); with LXFL 529, 24.8 µM (inactive); in the experiment with M19-MEL, 37.6 µM (inactive); with SNB-78 it was > 100 µM (inactive); in the experiment with XF498, 25.5 µM (inactive).

`Cc1cccc2[n+]1[C@H]1[C@H]([C@@H]3O[C@H]1c1ccccc13)[S+]([O-])N2` (stereo partly drawn): the GI50 in the experiment on DMS-114 is 22.7 µM (inactive); in the experiment with DMS-273, 27.2 µM (inactive); in the experiment on HOP-18, 21.2 µM (inactive); in the experiment with KM-20L2, 42.7 µM (inactive); with LXFL 529, 33.7 µM (inactive); in the experiment on M19-MEL it was 29.9 µM (inactive). The values for the GI50 in the experiment on RXF 631, in the experiment with SNB-78 and in the experiment with XF498 were > 100 µM (inactive), 23.3 µM (inactive) and 20.2 µM (inactive), respectively.

Consider `Cc1ns/c(=N\C(=S)N(C)C)n1C`, for which the GI50 with DMS-114, in the experiment on DMS-273, in the experiment with HOP-18, with KM-20L2, in the experiment with LXFL 529 and in the experiment on RXF 631 was > 100 µM (inactive) each time. The GI50 in the experiment on SNB-78 and in the experiment on XF498 was > 100 µM (inactive) in each case.

Take `O=C(Nc1nc2ncn(CCOC(=O)c3ccccc3)c2c(=O)[nH]1)c1ccccc1`: the GI50 in the experiment with HOP-18 was > 100 µM (inactive); in the experiment on KM-20L2 it was 6.9 µM (inactive); with LXFL 529, 22.7 µM (inactive); with RXF 631 it was 15.4 µM (inactive); with SNB-78, > 100 µM (inactive); with XF498, 20.2 µM (inactive).

`CC(=O)C1=C(C)Cn2c(=O)c3ccccc3c(=O)n2C1`: the GI50 in the experiment on DMS-114, in the experiment on DMS-273, in the experiment with KM-20L2, with LXFL 529, with M19-MEL and in the experiment on RXF 631 was > 100 µM (inactive) in each case.

On to `CCN(CC)c1ccc(/N=C2/C=CC(=C(C#N)C#N)c3ccccc32)c(C)c1`, for which the GI50 in the experiment on DMS-273 was 1.85 µM (inactive); in the experiment on HOP-18, 2.32 µM (inactive); in the experiment on KM-20L2 it was 1.95 µM (inactive); in the experiment on M19-MEL, 1.94 µM (inactive); in the experiment on SNB-78, 1.63 µM (inactive); with XF498, 1.44 µM (inactive).

As to `COc1cc(C2C(C(=O)Nc3ccc([N+](=O)[O-])cc3)=C(C)NC(C)=C2C(=O)Nc2ccc([N+](=O)[O-])cc2)ccc1O`, the GI50 was 24.1 µM (inactive) in the experiment on DMS-114; 21.9 µM (inactive) with DMS-273; 27.6 µM (inactive) with HOP-18; 18.5 µM (inactive) in the experiment with KM-20L2; 18.3 µM (inactive) with LXFL 529; 19.3 µM (inactive) with M19-MEL. The GI50 with RXF 631 was 32.5 µM (inactive); in the experiment on SNB-78, 34.8 µM (inactive); with XF498, 23.8 µM (inactive).

Consider `Cc1ccc(C)c(N2C(=O)C(=O)C(c3nc4ccccc4s3)C(=O)C2=O)c1`, for which the GI50 with DMS-114, in the experiment with DMS-273, with KM-20L2, in the experiment on LXFL 529, with M19-MEL and in the experiment on SNB-78 was > 100 µM (inactive) each time.

In the case of `N#C/C(=C\c1c[nH]c2ccccc12)C(=O)c1ccc(O)c(O)c1`, the GI50 in the experiment on DMS-273 is 36.2 µM (inactive); in the experiment on HOP-18, 38.5 µM (inactive); with KM-20L2 it was 55.5 µM (inactive); in the experiment with LXFL 529, 39.4 µM (inactive); with M19-MEL it was 83.2 µM (inactive); in the experiment on XF498, 48.8 µM (inactive).

As to `Cc1cc(NC(=O)NC(=O)c2ccccc2N(C)C)ccc1Oc1ncc(Br)cn1`, the GI50 in the experiment with DMS-114 was 0.219 µM (active); in the experiment on HOP-18, > 100 µM (inactive); in the experiment on KM-20L2 it was 0.284 µM (active); in the experiment on LXFL 529, 0.39 µM (active); in the experiment with M19-MEL, 0.455 µM (active); in the experiment with SNB-78 it was 1.05 µM (active). Further, the GI50 in the experiment on XF498 was 0.288 µM (active).

Source of the values: ChEMBL document CHEMBL1201862, “PubChem BioAssay data set” (2004).
